Assays:
[1] = tested on: HL-60; experiment: WST-1 cell proliferation assay; type: cell-based; conditions: Homo sapiens, APL, WST-1, 48 h, read-out: IC50 antiproliferative effect, HL-60
Procedure: (§1) The effect of compounds on cell proliferation of different leukemia and lymphoma cell lines OCI-AML3 (DSMZ ACC-582), IMS-M2 (a gift from Professor B. Falini, University of Perugia), OCI-AML2 (DSMZ, ACC-99), MV4–11 (ATCC, CRL-9591), Kasumi-1 (ATCC, CRL-2724), Karpass299 (DSMZ, ACC-31), U937 (ATCC, CRL1593.2), HL-60 (ATCC, CCL-240), and NB4 (DSMZ, ACC-207) was evaluated using the WST-1 assay (Roche Diagnostic GmbH Germany). The cells were plated, in triplicate, in 384-viewplate (Perkin Elmer) at a density of 5 × 10^3 cells/well in a final volume of 22.5 μL. The cells were incubated with increasing concentrations of compounds for 48 h at 37 °C, 5% CO2, then 2.5 μL of WST-1 reagent was added to each well for 1 h. For each cell line, dose–response curves were analyzed as nonlinear regression curves using GraphPad Prism (GraphPad Software Inc.) to obtain IC50 values.

[2] = tested on: IMS-M2; experiment: WST-1 cell proliferation assay; type: cell-based; conditions: AML, WST-1, 48 h, read-out: IC50 antiproliferative effect, IMS-M2
Procedure: as §1

[3] = tested on: Karpass299; experiment: WST-1 cell proliferation assay; type: cell-based; conditions: ALCL; WST-1, 48 h; read-out: IC50 antiproliferative effect, Karpass299
Procedure: as §1

[4] = tested on: Kasumi-1; experiment: WST-1 cell proliferation assay; type: cell-based; conditions: Homo sapiens, AML, WST-1, 48 h, read-out: IC50 antiproliferative effect, Kasumi-1
Procedure: as §1

[5] = tested on: MV4-11; experiment: WST-1 cell proliferation assay; type: cell-based; conditions: Homo sapiens, AML, WST-1, 48 h, read-out: IC50 antiproliferative effect, MV4-11
Procedure: as §1

[6] = tested on: NB4; experiment: WST-1 cell proliferation assay; type: cell-based; conditions: Homo sapiens, NB-4; APL; WST-1, 48 h; read-out: IC50 antiproliferative effect, NB4
Procedure: as §1

[7] = tested on: OCI-AML2; experiment: WST-1 cell proliferation assay; type: cell-based; conditions: Homo sapiens, AML, WST-1, 48 h, read-out: IC50 antiproliferative effect, OCI-AML2
Procedure: as §1

[8] = tested on: OCI-AML3; experiment: WST-1 cell proliferation assay; type: cell-based; conditions: Homo sapiens, OCI-AML-3, WST-1, 48 h, read-out: IC50 antiproliferative effect, OCI-AML3
Procedure: as §1

[9] = tested on: U937; experiment: WST-1 cell proliferation assay; type: cell-based; conditions: Homo sapiens, U-937; AML; WST-1, 48 h; read-out: IC50 antiproliferative effect, U937
Procedure: as §1

[10] = tested on: HT-29 colon carcinoma; experiment: MTT cell viability assay; type: cell-based, human; conditions: 72, 96, 120 h, 10 to 100 μM, 10′ to a similar extent as 10
Procedure: (§2) Human commercially available established cancer cell lines HT-29 colon carcinoma (ATCC, HTB-38), U-87MG glioblastoma (ATCC, HTB-14), and MNK-45 gastric cancer (a gift from Dr. M. Broggini, Mario Negri Institute) were cultured in RPMI medium (Euroclone, Milan, IT) supplemented with 10% inactivated fetal bovine serum (HyClone, Thermo Scientific, South Logan, UT), 1% L-glutamine (Euroclone), and 100 μg/mL penicillin/streptomycin (Euroclone). HEK293T and HeLa cells were cultured in Dulbecco’s Modified Eagle Medium (DMEM, Gibco) supplemented with 10% (v/v) fetal bovine serum (FBS, Sigma) and 100 international units/mL (IU/mL) penicillin and 100 μg/mL streptomycin (Gibco). The cells were routinely tested for mycoplasma contamination and STR-authenticated.
(§3) Twenty-four hours following seeding, exponentially growing cells were treated with the different compounds at concentrations ranging from 10 to 100 μM for 72–120 h. Aqueous DMSO (0.5%, v/v) was used as a control (untreated). Cell viability was determined by the 3-(4,5-dimethylthiazol-2-yl)-2,5-diphenyltetrazolium bromide (MTT) colorimetric assay (Sigma-Aldrich). In summary, exponentially growing cancer cells were seeded in sextuplicate in 96-well culture plates (1.5 × 10^3 cells/well). After 24 h, the compounds were added at concentrations ranging from 10 to 100 μM. The effect of compounds on cancer cell proliferation was assessed by measuring the MTT dye absorbance of the cells as reported.[52] For combination treatments, the cells were treated with each of three compounds, either alone or in combination with doxorubicin. In particular, U-87MG cells were treated with doxorubicin alone or in combination with different MINA53 inhibitors for 24 h. The effect of different compounds or combinations (drug concentration ratio 1:20, doxorubicin: compound) on U-87MG cancer cell viability was assessed by measuring the MTT dye absorbance of cells. The interaction between doxorubicin (Doxo) and different compounds was evaluated based on the combination index (CI) using the CI equation through CalcuSyn software (Biosoft, Cambridge, U.K.). Synergism CI < 0.9, additivity 0.9 < CI < 1.1, antagonism CI > 1.1.

[11] = tested on: MNK-45 gastric carcinoma; experiment: MTT cell viability assay; type: cell-based, human; conditions: 72, 96, 120 h, 10 to 100 μM, 10′ to a similar extent as 10
Procedure: as §2, §3

[12] = tested on: U-87MG malignant glioma; experiment: MTT cell viability assay; type: cell-based, human; conditions: 72, 96, 120 h, 10 to 100 μM, 10′ to a similar extent as 10
Procedure: as §2, §3

[13] = tested on: HeLa cervical carcinoma; experiment: MTT cell viability assay; type: cell-based; conditions: 72, 96, 120 h
Procedure: as §2
as §3, with “For combination treatments, the cells were treated with each of three compounds, either alone or in combination with doxorubicin. In particular, U-87MG cells were treated with doxorubicin alone or in combination with different MINA53 inhibitors for 24 h.” left out, “Synergism CI < 0.9, additivity 0.9 < CI < 1.1, antagonism CI > 1.1.” left out
Figure S17. Antiproliferative effects of M INA53 inhibitors on HeLa (A) and HEK293T (B) cells as determined by the MTT method after exposure for 72, 96, and 120 h to the negative control 1, and the MINA53 inhibitors 9 and 10. […]

[14] = tested on: U-87MG cells; experiment: Western blot of H2AX serine 139 phosphorylation (γ-H2AX); type: cell-based, human; set-up: dose or concentration left out as unconfirmed; conditions: time-dependent (2, 4, 8 h)
Procedure: Proteins were transferred onto nitrocellulose or PVDF membranes and incubated with rabbit γ-H2AX (#9718, Cell Signaling Technologies, MA) anti-GAPDH (Sc47724, Santa Cruz Biotechnology, Santa Cruz, CA), rabbit anti-RPL27A (Abcam, ab74731), goat anti-RPL8 (Abcam, ab63941), horseradish peroxidase (HRP)-conjugated anti-HA (Roche, 12013819001), and HRP-conjugated anti-β-actin (Abcam, ab-49900).
Figure S19. Western blot analysis and relative densitometric analysis of the phosphorylated form of H2AX (ser139) on U-8 7MG glioma cells exposed for the indicated times to 1 (negative control), […]
Doxorubicin was used as a positive control (0.5 μM, 8 h). GAPDH expression was used as a control loading. Results are express ed as f old changes over […]

| SMILES | IC50 [1] | IC50 [2] | IC50 [3] | IC50 [4] | IC50 [5] | IC50 [6] | IC50 [7] | IC50 [8] | IC50 [9] | effect on cell viability, HT-29 [10] | effect on cell viability, MNK-45 [11] | effect on cell viability, U-87MG [12] | effect on cell viability, HeLa [13] | γ-H2AX (H2AX serine 139 phosphorylation) [14] |
| --- | --- | --- | --- | --- | --- | --- | --- | --- | --- | --- | --- | --- | --- | --- |
| O=C(O)c1c[nH]c(=S)[nH]c1=O [compound 1] | > 100 µM | > 100 µM | > 100 µM | > 100 µM | > 100 µM | > 100 µM | > 100 µM | > 100 µM | > 100 µM | no effect | no effect | no effect | no effect | not increased |
| O=C(O)c1cnc(SCCc2ccccc2)[nH]c1=O [compound 9, 2-(Phenethylthio)-3,4-dihydro-4-oxopyrimidine-5-carboxylic Acid] | 73 ± 3 µM | > 100 µM | > 100 µM | > 100 µM | > 100 µM | 91 ± 3 µM | > 100 µM | > 100 µM | > 100 µM | only a marginal effect | sensitive | sensitive | sensitive | strong γ-H2AX increase |
| O=C(O)c1cnc(SCCCc2ccccc2)[nH]c1=O [compound 10, 2-((3-Phenylpropyl)thio)-3,4-dihydro-4-oxopyrimidine-5-carboxylic Acid] | 14 ± 2 µM | > 100 µM | > 100 µM | > 100 µM | > 100 µM | 94 ± 4 µM | > 100 µM | > 100 µM | > 100 µM | only a marginal effect | sensitive | sensitive | sensitive | strong γ-H2AX increase |
